The record followed here is US20240270759A1, “Preparation of SHP2 phosphatase inhibitors and its applications” (Ya Therapeutics Inc, priority 2021, published 2024).

pIC50: −log10 of the molar value.

In the assay the target is T1, SHP2 full-length protein (Homo sapiens, UniProt Q06124).
T1 construct: purchased BPS Bioscience #79330
T1 sequence (Q06124 1-593): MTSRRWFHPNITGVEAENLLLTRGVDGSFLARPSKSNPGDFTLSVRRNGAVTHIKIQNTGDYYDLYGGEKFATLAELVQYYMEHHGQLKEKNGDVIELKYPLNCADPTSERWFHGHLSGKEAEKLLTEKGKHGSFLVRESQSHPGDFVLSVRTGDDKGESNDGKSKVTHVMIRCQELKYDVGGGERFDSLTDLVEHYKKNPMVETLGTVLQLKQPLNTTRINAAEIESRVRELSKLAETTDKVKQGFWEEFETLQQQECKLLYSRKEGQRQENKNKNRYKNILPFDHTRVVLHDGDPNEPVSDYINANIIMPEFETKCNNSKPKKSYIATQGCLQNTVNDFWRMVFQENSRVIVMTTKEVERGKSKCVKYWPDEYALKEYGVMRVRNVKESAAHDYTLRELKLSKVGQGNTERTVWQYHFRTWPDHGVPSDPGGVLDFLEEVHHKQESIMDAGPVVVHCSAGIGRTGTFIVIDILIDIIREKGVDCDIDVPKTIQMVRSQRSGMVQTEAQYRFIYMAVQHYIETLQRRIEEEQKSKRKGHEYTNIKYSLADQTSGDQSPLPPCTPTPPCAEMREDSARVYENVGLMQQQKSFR
The assay is described as follows: SHP2 allosteric inhibition experiment (Homogeneous Full Length SHP-2 Assay Kit). In kind it is biochemical. Particulars: full-length SHP2 0.06 nM with SHP-2 activating peptide; ten-point, 1 μM to 0.05 nM; read-out: IC50 Values of Compounds Inhibiting SHP2. The text has this:
The following further describes and explains the present invention in combination with test examples, but these examples are not meant to limit the scope of the present invention. SHP2 allosteric inhibition experiment
The purpose of this test is to measure the ability of the compounds to inhibit the allosteric activity of the SHP2 full-length protein. Experimental equipment: a centrifuge (5810R) is purchased from Eppendorf Company; pipettes are purchased from Eppendorf Company and Rainin Company, and microplate readers are purchased from BioTek Company of the United States, SynergyH1 multimode microplate reader.
Experimental method: Homogeneous Full Length SHP-2 Assay Kit (BPS Bioscience, #79330) is used to detect SHP2 activity in vitro. First, add 18 μL of Master Mix to 96-well low-adsorption microplate (NUNC, #267342), that is, 0.5 μL of SHP-2 activating Peptide and 5 mM DTT are included in the reaction buffer with a final concentration of 1×. After centrifugation, add 5 μL of the compound to be tested in DMSO (final DMSO content is 1% (V/V) in each well: dissolve the compound to be tested in DMSO to 1 mM, conduct triple dilution with a total of 10 concentration levels ranging from 1 μM to 0.05 nM in the reaction buffer. After diluting SHP2 in 1× reaction buffer to a final concentration of 0.06 nM, add it to the reaction microwell plate, 2 μL per well. Set a full activity control ([…]) and a full inhibition control (without SHP-2) on the reaction plate, and incubate the reaction mixture at room temperature for 60 minutes after centrifugation.
After incubation, add 25 μL of Substrate solution to each well, containing Substrate with a final concentration of 10 μM and DTT with a final concentration of 5 mM, and after centrifugation, continue to incubate at room temperature for 30 minutes. After the reaction, set the excitation wavelength at 340 nm, the emission wavelength at 455 nm, and the gain value to 75 on the Synergy H1 microplate reader (Biotek) for reading.
Take the full activity control and full inhibition control as the values of Max and Min, and calculate the percentage inhibition rate of the wells treated with the compound based on the positive control wells (DMSO control wells) and negative control wells (no kinase added) on the reaction plate, (inhibition rate percentage=100−[(test compound−Min average value)/(Max average value−Min average value)]×100%. IC50 values of test compounds are calculated by fitting percentage of inhibition and ten-point concentration data to a 4-parameter nonlinear logic formula using GraphPad prism.
As to `Nc1nccc(-n2c(=O)[nH]c3nc(N4CCC5(CC4)Cc4cnccc4[C@H]5N)ccc3c2=O)c1Cl` [Compound 27, (S)-3-(2-amino-3-chloropyridine-4-yl)-7-(5-amino-5,7-dihydrospiro[cyclopenta[c]pyridine-6,4′-piperidine]-1′-yl) pyridinyl[2,3-d]pyrimidine-2,4(1H,3H)-dione], the pIC50 (usually −log10 of the IC50, conventionally taken in molar units) is not below 8.00. For `N[C@@H]1c2ccncc2CC12CCN(c1ccc3c(=O)n(-c4ccnc(NC5CC5)c4Cl)c(=O)[nH]c3n1)CC2` [Compound 28] the value was not below 8.00; for `C[C@@H]1OCC2(CCN(c3cnc4nc(Sc5cccc(-c6ccn(C)n6)c5Cl)ncc4n3)CC2)[C@@H]1N` [Compound 63, (3S,4S)-8-(2-((2-chloro-3-(1-methyl-1H-pyrazole-3-yl)phenyl)mercapto)pteridine-6-y 1)-3-methyl-2-oxa-8-azaspiro[4.5]decane-4-amine], not below 8.00; for `C[C@@H]1OCC2(CCN(c3ncc4nc(Sc5cccc(-c6ccn(C)n6)c5Cl)cnc4n3)CC2)[C@@H]1N` [Compound 64, (3S,4S)-8-(6-((2-chloro-3-(1-methyl-1H-pyrazole-3-yl)phenyl)mercapto)pteridine-2-y 1)-3-methyl-2-oxa-8-azaspiro[4.5]decane-4-amine], not below 8.00. The result for `C[C@@H]1OCC2(CCN(c3ccc4nc(Sc5cccc(-c6ccn(C)n6)c5Cl)ncc4n3)CC2)[C@@H]1N` [Compound 65, (3S,4S)-8-(2-((2-chloro-3-(1-methyl-1H-pyrazole-3-yl)phenyl)mercapto)pyridinyl[3,2-d]pyrimidine-6-yl)-3-methyl-2-oxa-8-azaspiro[4.5]decane-4-amine] reads not below 8.00; that for `CCn1ccc(-c2cccc(Sc3ncc4nc(N5CCC6(CC5)CO[C@@H](C)[C@H]6N)cnc4n3)c2Cl)n1` [Compound 66, (3S,4S)-8-(2-((2-chloro-3-(1-ethyl-1H-pyrazole-3-yl)phenyl)mercapto)pteridine-6-yl)-3-methylyl-2-oxa-8-azaspiro[4.5]decane-4-amine], not below 8.00; that for `CCn1ccc(-c2cccc(Sc3cnc4nc(N5CCC6(CC5)CO[C@@H](C)[C@H]6N)ncc4n3)c2Cl)n1` [Compound 67, (3S,4S)-8-(6-((2-chloro-3-(1-ethyl-1H-pyrazole-3-yl)phenyl)mercapto)pteridine-2-yl)-3-methylyl-2-oxa-8-azaspiro[4.5]decane-4-amine], not below 8.00. The result for `CCn1ccc(-c2cccc(Sc3ncc4nc(N5CCC6(CC5)CO[C@@H](C)[C@H]6N)ccc4n3)c2Cl)n1` [Compound 68, (3S,4S)-8-(2-((2-chloro-3-(1-ethyl-1H-pyrazole-3-yl)phenyl)mercapto)pyridinyl[3,2-d]pyrimidine-6-yl)-3-methyl-2-oxa-8-azaspiro[4.5]decane-4-amine] reads not below 8.00; that for `CC(C)n1ccc(-c2cccc(Sc3ncc4nc(N5CCC6(CC5)CO[C@@H](C)[C@H]6N)cnc4n3)c2Cl)n1` [Compound 69, (3S,4S)-8-(2-((2-chloro-3-(1-isopropyl-1H-pyrazole-3-yl)phenyl)mercapto)pteridine-6-yl)-3-methyl-2-oxa-8-azaspiro[4.5]decane-4-amine], not below 8.00.

Regarding `CC(C)n1ccc(-c2cccc(Sc3cnc4nc(N5CCC6(CC5)CO[C@@H](C)[C@H]6N)ncc4n3)c2Cl)n1` [Compound 70, (3S,4S)-8-(6-((2-chloro-3-(1-isopropyl-1H-pyrazole-3-yl)phenyl)mercapto)pteridine-2-yl)-3-methyl-2-oxa-8-azaspiro[4.5]decane-4-amine], the pIC50 is not below 8.00.

For `CC(C)n1ccc(-c2cccc(Sc3ncc4nc(N5CCC6(CC5)CO[C@@H](C)[C@H]6N)ccc4n3)c2Cl)n1` [Compound 71, (3S,4S)-8-(2-((2-chloro-3-(1-isopropyl-1H-pyrazole-3-yl)phenyl)mercapto)pyridinyl[3,2-d]pyrimidine-6-yl)-3-methyl-2-oxa-8-azaspiro[4.5]decane-4-amine], the pIC50 was not below 8.00. As for `C[C@@H]1OCC2(CCN(c3cnc4nc(Sc5cccc(-c6cnccn6)c5Cl)ncc4n3)CC2)[C@@H]1N` [Compound 72, (3S,4S)-8-(2-((2-chloro-3-(pyrazine-2-yl)phenyl)mercapto)pteridine-6-yl)-3-methyl-2-oxa-8-azaspiro[4.5]decane-4-amine], the pIC50 is not below 8.00. For `C[C@@H]1OCC2(CCN(c3ncc4nc(Sc5cccc(-c6cnccn6)c5Cl)cnc4n3)CC2)[C@@H]1N` [Compound 73, (3S,4S)-8-(6-((2-chloro-3-(pyrazine-2-yl)phenyl)mercapto)pteridine-2-yl)-3-methyl-2-oxa-8-azaspiro[4.5]decane-4-amine] the value was not below 8.00. The result for `C[C@@H]1OCC2(CCN(c3ccc4nc(Sc5cccc(-c6cnccn6)c5Cl)ncc4n3)CC2)[C@@H]1N` [Compound 74, (3S,4S)-8-(2-((2-chloro-3-(pyrazine-2-yl)phenyl)mercapto)pyridinyl[3,2-d]pyrimidine-6-yl)-3-methyl-2-oxa-8-azaspiro[4.5]decane-4-amine] reads not below 8.00; that for `C[C@@H]1OCC2(CCN(c3cnc4nc(Sc5cccc(-c6ccncn6)c5Cl)ncc4n3)CC2)[C@@H]1N` [Compound 75, (3S,4S)-8-(2-((2-chloro-3-(pyrimidine-4-yl)phenyl)mercapto)pteridine-6-yl)-3-methyl-2-oxa-8-azaspiro[4.5]decane-4-amine], not below 8.00. The result for `C[C@@H]1OCC2(CCN(c3ncc4nc(Sc5cccc(-c6ccncn6)c5Cl)cnc4n3)CC2)[C@@H]1N` [Compound 76, (3S,4S)-8-(6-((2-chloro-3-(pyrimidine-4-yl)phenyl)mercapto)pteridine-2-yl)-3-methyl-2-oxa-8-azaspiro[4.5]decane-4-amine] reads not below 8.00; that for `C[C@@H]1OCC2(CCN(c3ccc4nc(Sc5cccc(-c6ccncn6)c5Cl)ncc4n3)CC2)[C@@H]1N` [Compound 77, (3S,4S)-8-(2-((2-chloro-3-(pyrimidine-4-yl)phenyl)mercapto)pyridinyl[3,2-d]pyrimidine-6-yl)-3-methyl-2-oxa-8-azaspiro[4.5]decane-4-amine], not below 8.00; that for `C[C@@H]1OCC2(CCN(c3cnc4nc(Sc5cccc(-c6cccnc6)c5Cl)ncc4n3)CC2)[C@@H]1N` [Compound 78], not below 8.00. Turning to `C[C@@H]1OCC2(CCN(c3ccc4nc(Sc5cccc(-c6cccnc6)c5Cl)ncc4n3)CC2)[C@@H]1N` [Compound 80], the pIC50 was not below 8.00.

Regarding `C[C@@H]1OCC2(CCN(c3cnc4nc(Sc5cccc(NC(=O)c6ccncn6)c5Cl)ncc4n3)CC2)[C@@H]1N` [Compound 81, N-(3-((6-((3S,4S)-4-amino-3-methyl-2-oxa-8-azaspiro[4.5]decane-8-yl)pteridine-2-yl)mercapto)-2-chlorophenyl)pyrimidine-4-carboxamide], the pIC50 was not below 8.00. The result for `C[C@@H]1OCC2(CCN(c3ncc4nc(Sc5cccc(NC(=O)c6ccncn6)c5Cl)cnc4n3)CC2)[C@@H]1N` [Compound 82, N-(3-((2-((3S,4S)-4-amino-3-methyl-2-oxa-8-azaspiro[4.5]decane-8-yl)pteridine-6-yl)mercapto)-2-chlorophenyl)pyrimidine-4-carboxamide] reads not below 8.00.
